Here are results for 21 compounds from patent US7157487B2, “Vla-4 inhibitors” (Daiichi Pharmaceutical Co., Ltd., priority 2000, dated 2007).

The target in data set [1] is T1, integrins haα4 and β1 (VLA-4) expressed on CHO cells (Homo sapiens, UniProt P05556+P13612).
T1 construct: expressed in transfected cells; host or cells: CHO cells
In words: In vitro Evaluation Test (1): binding of Eu3+-hVCAM-1 D1D7-IgG to CHO cells expressing integrins α4 and β1. To be noted: inhibition of Eu3+-hVCAM-1 D1D7-IgG binding to CHO cells expressing α4β1; Ki calculated from IC50. Summed up: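 CHO cells transduced with human α4 and β1 were grown for 2 days. They were incubated 1 h at room temperature with Eu3+-hVCAM-1 D1D7-IgG (diluted to 2 nM before addition) and compound, with or without 6% HSA, in HEPES pH 7.5 containing Ca2+, Mg2+ and 4 mM Mn2+. Time-resolved fluorescence gave IC50; Ki used a Scatchard-derived Kd (0.06–20 nM).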

The nature of data set [2]: Evaluation of oral bioavailability by mouse bioassay. Type of data set: in vivo. To be noted: 10 mg/kg oral, female Balb/C mice, serum 15 minutes after administration, read-out: Blood level. Here is the method: A test compound was suspended or dissolved in a proper administration medium to give a concentration of 1 mg/ml. To 7 to 9 week old female Balb/C mice, 10 mg/kg of the resulting suspension or solution was orally administered. Fifteen minutes after the administration, blood was collected from the postcava under anesthesia with ether and the serum was separated from it. The concentration of each test compound was determined by estimating the serum level from a calibration curve obtained with VCAM-1/VLA-4 inhibitory activity as an index or measuring the concentration by using LC/MS/MS.

T1 sequence (P13612 34-1032): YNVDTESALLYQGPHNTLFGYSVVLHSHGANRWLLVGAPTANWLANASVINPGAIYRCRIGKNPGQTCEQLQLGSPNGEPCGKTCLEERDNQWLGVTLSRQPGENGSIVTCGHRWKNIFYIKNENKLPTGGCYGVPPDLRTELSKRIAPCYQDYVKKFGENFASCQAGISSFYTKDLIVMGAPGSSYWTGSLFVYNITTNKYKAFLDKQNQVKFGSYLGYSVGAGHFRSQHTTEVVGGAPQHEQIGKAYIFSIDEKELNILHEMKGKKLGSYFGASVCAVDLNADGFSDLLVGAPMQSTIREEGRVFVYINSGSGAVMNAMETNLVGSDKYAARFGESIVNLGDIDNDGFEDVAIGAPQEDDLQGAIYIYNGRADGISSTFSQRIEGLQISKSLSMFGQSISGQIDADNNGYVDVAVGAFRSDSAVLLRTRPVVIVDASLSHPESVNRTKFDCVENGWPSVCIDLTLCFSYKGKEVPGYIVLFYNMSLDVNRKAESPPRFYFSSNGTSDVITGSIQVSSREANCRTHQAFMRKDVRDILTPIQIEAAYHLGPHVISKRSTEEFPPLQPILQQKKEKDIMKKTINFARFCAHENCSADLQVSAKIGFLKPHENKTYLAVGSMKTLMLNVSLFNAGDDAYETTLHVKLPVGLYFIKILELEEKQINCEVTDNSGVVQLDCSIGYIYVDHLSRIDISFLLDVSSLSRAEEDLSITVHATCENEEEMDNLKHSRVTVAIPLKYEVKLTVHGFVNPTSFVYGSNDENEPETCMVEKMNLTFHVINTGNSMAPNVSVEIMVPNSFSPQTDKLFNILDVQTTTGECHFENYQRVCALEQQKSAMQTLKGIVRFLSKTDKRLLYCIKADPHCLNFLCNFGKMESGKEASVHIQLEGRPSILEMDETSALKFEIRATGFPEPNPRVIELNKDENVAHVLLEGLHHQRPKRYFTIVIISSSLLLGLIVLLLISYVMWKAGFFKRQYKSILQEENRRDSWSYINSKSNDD
T1 sequence (P05556 21-798): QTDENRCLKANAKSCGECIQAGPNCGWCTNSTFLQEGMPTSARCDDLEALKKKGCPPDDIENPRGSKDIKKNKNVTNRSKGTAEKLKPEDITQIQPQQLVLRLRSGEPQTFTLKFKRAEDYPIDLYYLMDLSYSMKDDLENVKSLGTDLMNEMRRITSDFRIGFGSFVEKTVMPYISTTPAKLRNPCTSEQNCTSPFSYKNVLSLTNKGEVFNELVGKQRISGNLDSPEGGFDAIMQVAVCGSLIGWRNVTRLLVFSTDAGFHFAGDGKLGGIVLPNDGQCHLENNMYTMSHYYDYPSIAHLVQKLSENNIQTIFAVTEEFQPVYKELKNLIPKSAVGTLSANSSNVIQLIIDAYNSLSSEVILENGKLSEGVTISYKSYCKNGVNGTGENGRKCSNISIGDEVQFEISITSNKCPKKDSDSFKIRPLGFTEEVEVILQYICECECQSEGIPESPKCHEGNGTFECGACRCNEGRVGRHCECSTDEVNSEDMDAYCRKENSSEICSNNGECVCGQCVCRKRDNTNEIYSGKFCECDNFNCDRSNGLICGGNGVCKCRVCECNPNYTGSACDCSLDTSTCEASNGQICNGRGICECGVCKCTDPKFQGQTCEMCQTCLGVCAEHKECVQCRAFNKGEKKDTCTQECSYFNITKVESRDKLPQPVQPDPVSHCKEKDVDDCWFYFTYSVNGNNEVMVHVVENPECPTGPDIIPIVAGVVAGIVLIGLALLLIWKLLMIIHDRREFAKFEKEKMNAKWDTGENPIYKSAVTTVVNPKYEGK

With `Cn1cc(-c2nc3ccc(CC(=O)N4C[C@@H](F)C[C@H]4CO[C@H]4CC[C@H](C(=O)O)CC4)c(F)c3o2)c2ccccc21` [Example 98, trans-4-(1-((7-Fluoro-2-(1-methyl-3-indolyl)-6-benzoxazolyl)acetyl)-(4S)-fluoro-(2S)-pyrrolidinylmethoxy)cyclohexanecarboxylic acid], the Ki – broadly, the equilibrium dissociation constant of an inhibitor or competing ligand from its target – in data set [1] was 3.6 nM. Moreover, the concentration at 15 min in data set [2] was 2210 ng/mL.
For `COC[C@H]1C[C@@H](CO[C@H]2CC[C@H](C(=O)O)CC2)N(C(=O)Cc2cc(Cl)c(NC(=O)c3cn(C)c4ccccc34)cc2F)C1` [Example 138, trans-4-(1-(5-Chloro-2-fluoro-4-((1-methyl-1H-3-indolylcarbonyl)amino)phenylacetyl)-(4S)-methoxymethyl-(2S)-pyrrolidinylmethoxy)cyclohexanecarboxylic acid] the same measures were 15 nM and 1260 ng/mL.
For the compound `CS[C@H]1C[C@@H](CO[C@H]2CC[C@H](C(=O)O)CC2)N(C(=O)Cc2cc(Cl)c(NC(=O)c3cn(C)c4ccccc34)cc2F)C1` [Example 125, trans-4-(1-((5-Chloro-2-fluoro-4-((1-methyl-3-indolylcarbonyl)amino)phenyl)acetyl)-(4S)-methylthio-(2S)-pyrrolidinylmethoxy)cyclohexanecarboxylic acid], the Ki in data set [1] was 6.5 nM. Also, in data set [2], the concentration at 15 min amounted to 2570 ng/mL.
On to `Cn1cc(-c2nc3ccc(CC(=O)N4C[C@@H](F)C[C@H]4CO[C@H]4CC[C@H](C(=O)O)CC4)cc3o2)c2cc(F)ccc21` [Example 100, trans-4-(1-((2-(5-Fluoro-1-methyl-3-indolyl)-6-benzoxazolyl)acetyl)-(4S)-fluoro-(2S)-pyrrolidinylmethoxy)cyclohexanecarboxylic acid], for which the Ki in data set [1] is 5.5 nM. The concentration at 15 min in data set [2] was 533 ng/mL.
With `O=C(Cc1cc(Cl)c(Nc2nc3ccccc3o2)cc1F)N1C[C@@H](F)C[C@H]1CO[C@H]1CC[C@H](C(=O)O)CC1` [Example 55, trans-4-(1-(4-(2-Benzoxazolyl)amino-5-chloro-2-fluorophenylacetyl)-(4S)-fluoro-(2S)-pyrrolidinylmethoxy)cyclohexanecarboxylic acid], the Ki in data set [1] was 8.5 nM. The concentration at 15 min in data set [2] was 2030 ng/mL.
Turning to `COC[C@H]1CC[C@@H](CO[C@H]2CC[C@H](C(=O)O)CC2)N1C(=O)Cc1cc(Cl)c(NC(=O)c2cn(C)c3ccccc23)cc1F` [Example 164, trans-4-(1-((5-Chloro-2-fluoro-4-((1-methyl-3-indolylcarbonyl)amino)phenyl)acetyl)-(5R)-methoxymethyl-(2S)-pyrrolidinylmethoxy)cyclohexanecarboxylic acid], the Ki in data set [1] was 6.4 nM. The concentration at 15 min in data set [2] came out at 2300 ng/mL.
Consider `Cn1cc(C(=O)Nc2cc(F)c(CC(=O)N3C[C@@H](F)C[C@H]3CO[C@H]3CC[C@H](C(=O)O)CC3)cc2F)c2ccccc21` [Example 71, trans-4-(1-(2,5-Difluoro-4-((1-methyl-1H-3-indolylcarbonyl)amino)phenylacetyl)-(4S)-fluoro-(2S)-pyrrolidinylmethoxy)cyclohexanecarboxylic acid], for which the Ki in data set [1] was 18 nM. In data set [2], the concentration at 15 min is 7340 ng/mL.
Regarding `O=C(Nc1cc(F)c(CC(=O)N2C[C@@H](F)C[C@H]2CO[C@H]2CC[C@H](C(=O)O)CC2)cc1Cl)c1n[nH]c2ccccc12` [Example 172, trans-4-(1-((5-Chloro-2-fluoro-4-(3-indazolylcarbonylamino)phenyl)acetyl)-(4S)-fluoro-(2S)-pyrrolidinylmethoxy)cyclohexanecarboxylic acid], the Ki in data set [1] was 6.8 nM. The concentration at 15 min in data set [2] turned out to be 848 ng/mL.
Regarding `Cn1nc(C(=O)Nc2cc(F)c(CC(=O)N3C[C@@H](F)C[C@H]3CO[C@H]3CC[C@H](C(=O)O)CC3)cc2Cl)c2ccccc21` [Example 87, trans-4-(1-((5-Chloro-2-fluoro-4-((1-methyl-3-indazolylcarbonyl)amino)phenyl)acetyl)-(4S)-fluoro-(2S)-pyrrolidinylmethoxy)cyclohexanecarboxylic acid], the Ki in data set [1] was 9.1 nM. Also, in data set [2], the concentration at 15 min came out at 15100 ng/mL.
In the case of `Cn1cc(C(=O)Nc2ccc(CC(=O)N3C[C@@H](F)C[C@H]3CO[C@H]3CC[C@H](C(=O)O)CC3)cc2F)c2ccccc21` [Example 70, trans-4-(1-(3-Fluoro-4-(1-methyl-3-indolyl)carbonylaminophenylacetyl)-(4S)-fluoro-(2S)-pyrrolidinylmethoxy)cyclohexanecarboxylic acid], the inhibition constant Ki in data set [1] was 7.2 nM. The concentration at 15 min in data set [2] is 2800 ng/mL.
The like results for `COC[C@H]1C[C@@H](CO[C@H]2CC[C@H](C(=O)O)CC2)N(C(=O)Cc2cc(Cl)c(NC(=O)c3nn(C)c4ccccc34)cc2F)C1` [Example 139, trans-4-(1-(5-Chloro-2-fluoro-4-((1-methyl-1H-indazole-3-indazolylcarbonyl)amino)phenylacetyl)-(4S)-methoxymethyl-(2S)-pyrrolidinylmethoxy)cyclohexanecarboxylic acid] were, in that order, 9.1 nM and 2430 ng/mL.
As to `Cn1cc(C(=O)Nc2cc(F)c(CC(=O)N3CCC[C@H]3CO[C@H]3CC[C@H](C(=O)O)CC3)cc2Cl)c2ccccc21` [Example 130, trans-4-(1-((5-Chloro-2-fluoro-4-(1-methyl-3-indolylcarbonylamino)phenyl)acetyl)-(2S)-pyrrolidinylmethoxy)-1-cyclohexanecarboxylic acid], in data set [1], the Ki was 8.8 nM. Besides, the concentration at 15 min in data set [2] amounted to 3590 ng/mL.
Take `O=C(O)C1CCC(OC[C@@H]2C[C@H](F)CN2C(=O)Cc2ccc(NC(=O)N3CCc4ccccc43)c(Cl)c2)CC1` (stereo partly drawn) [Example 36, 4-(1-(3-Chloro-4-(1-indolinylcarbonylamino)phenylacetyl)-(4S)-fluoro-(2S)-pyrrolidinylmethoxy)cyclohexanecarboxylic acid]: the Ki in data set [1] was 1.5 nM. Moreover, the concentration at 15 min in data set [2] is 1100 ng/mL.
In the case of `C[C@H]1CC[C@@H](CO[C@H]2CC[C@H](C(=O)O)CC2)N1C(=O)Cc1cc(Cl)c(NC(=O)c2cn(C)c3ccccc23)cc1F` [Example 136, trans-4-(1-((5-chloro-2-fluoro-4-((1-methyl-3-indolyl)carbonylamino)phenyl)acetyl)-(5S)-methyl-(2S)-pyrrolidinylmethoxy)cyclohexanecarboxylic acid], in data set [1], the Ki is 5.4 nM. For the same compound, the concentration at 15 min in data set [2] worked out at 2500 ng/mL.
Regarding `CO[C@H]1CCN(C(=O)Cc2cc(Cl)c(NC(=O)c3nn(C)c4ccccc34)cc2F)[C@@H]1CO[C@H]1CC[C@H](C(=O)O)CC1` [Example 169, trans-4-(1-((5-Chloro-2-fluoro-4-((1-methyl-3-indazolylcarbonyl)amino)phenyl)acetyl)-(3S)-methoxy-(2R)-pyrrolidinylmethoxy)cyclohexanecarboxylic acid], the Ki in data set [1] was 16 nM. Besides, the concentration at 15 min in data set [2] worked out at 21800 ng/mL.
For the compound `O=C(O)C1CCC(OC[C@@H]2C[C@H](F)CN2C(=O)Cc2ccc3nc(Nc4ccccc4Cl)oc3c2)CC1` (single isomer, unassigned) [24 (Isomer A)], the Ki in data set [1] was 14 nM. In addition, the concentration at 15 min in data set [2] is 2180 ng/mL.
On to `O=C(Nc1ccc(CC(=O)N2C[C@@H](F)C[C@H]2CO[C@H]2CC[C@H](C(=O)O)CC2)cc1Cl)c1nsc2ccccc12` [Example 83, trans-4-(1-(3-Chloro-4-((3-benzo(d)isothiazolylcarbonyl)amino)phenylacetyl)-(4S)-fluoro-(2S)-pyrrolidinylmethoxy)cyclohexanecarboxylic acid], for which the Ki in data set [1] was 1.9 nM. Moreover, the concentration at 15 min in data set [2] stood at 1540 ng/mL.
As to `CO[C@H]1C[C@@H](CO[C@H]2CC[C@H](C(=O)O)CC2)N(C(=O)Cc2cc(Cl)c(NC(=O)c3nsc4ccccc34)cc2F)C1` [Example 171, trans-4-(1-(5-Chloro-2-fluoro-4-((3-benzo(d)isothiazolylcarbonyl)amino)phenylacetyl)-(4S)-methoxy-(2S)-pyrrolidinylmethoxy)cyclohexanecarboxylic acid], the Ki in data set [1] is 5 nM. The concentration at 15 min in data set [2] was found to be 2730 ng/mL.
With `Cc1ccc(F)cc1Nc1nc2ccc(CC(=O)N3C[C@@H](F)C[C@H]3CO[C@H]3CC[C@H](C(=O)O)CC3)c(F)c2o1` [Example 44, trans-4-(1-((2-(5-Fluoro-2-methylphenylamino)-7-fluoro-6-benzoxazolyl)acetyl)-(4S)-fluoro-(2S)-pyrrolidinylmethoxy)cyclohexanecarboxylic acid], in data set [1], the Ki is 2 nM. Further, the concentration at 15 min in data set [2] was 912 ng/mL.
As to `Cn1cc(C(=O)Nc2ccc(CC(=O)N3C[C@@H](F)C[C@H]3COC3CCC(C(=O)O)CC3)cc2Cl)c2ccccc21` (stereo partly drawn) [Example 39, 4-(1-(3-Chloro-4-(1-methyl-3-indolylcarbonylamino)phenylacetyl)-(4S)-fluoro-(2S)-pyrrolidinylmethoxy)cyclohexanecarboxylic acid], the Ki in data set [1] is 2.1 nM. Besides, in data set [2], the concentration at 15 min was 5160 ng/mL.
For `O=C(Cc1ccc(Nc2nc3ccccc3o2)c(Cl)c1)N1C[C@@H](F)C[C@H]1CO[C@H]1CC[C@H](C(=O)O)CC1` [Example 49, trans-4-(1-(4-(2-benzoxazolyl)amino-3-chlorophenylacetyl)-(4S)-fluoro-(2S)-pyrrolidinylmethoxy)cyclohexanecarboxylic acid] the same measures were 4.4 nM and 508 ng/mL.
